Experimental data taken from patent US9624477B2 (priority 2004, dated 2017).

Tested on: Pi-omega3Des
Format: cell-based, Phytophthora infestans
Details: FIG. 9; for desaturation of phospholipid-bound fatty acid (sn1 or sn2 position): fatty acids bound in phospholipids; for phospholipid converted by ω-3-desaturase: desaturation products also found in the neutral lipids

Compound	desaturation of phospholipid-bound fatty acid (sn1 or sn2 position)	phospholipid converted by ω-3-desaturase
CCCCC/C=C\C/C=C\C/C=C\CCCCCCC(=O)O [C20:3 ω-6-fatty acid, dihomo-γ-linolenic acid, reference compound]	does not differentiate between fatty acids bound at the sn1 or sn2 position	
CCCCC/C=C\C/C=C\C/C=C\C/C=C\CCCC(=O)O [arachidonic acid, reference compound]	desaturation of phospholipid-bound arachidonic acid to EPA	
phosphatidylcholine		converts
phosphatidylethanolamine		converts
phosphatidylinositol		converts
